# “And” between values parts separate entries of the source, which are not always exact repeats. Equal entries are not always repeated. Where two headings read alike, the source gives them in different places.
# Biological target: C. elegans (N2) complex I (NADH:ubiquinone oxidoreductase) (Caenorhabditis elegans, UniProt P24887+Q93873+Q94360)
# Test: biochemical
# Type: biochemical
# Procedure, shortened: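 Mitochondria from liquid-cultured adults were freeze-thawed thrice before the 15-min DCIP-coupled NADH oxidation read.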
# [1] = wild-type C. elegans, mean of replicates, read-out: in vitro complex I activity relative to solvent control, Mean
# [2] = wild-type C. elegans, single replicate, read-out: in vitro complex I activity relative to solvent control, individual replicate
# C. elegans (N2) complex I (NADH:ubiquinone oxidoreductase), sequence (Q94360 17-199): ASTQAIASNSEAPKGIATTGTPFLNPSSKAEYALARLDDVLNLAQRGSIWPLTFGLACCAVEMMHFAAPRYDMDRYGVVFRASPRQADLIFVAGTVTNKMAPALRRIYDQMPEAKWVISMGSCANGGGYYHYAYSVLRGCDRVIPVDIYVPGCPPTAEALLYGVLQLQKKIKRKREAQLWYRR
# C. elegans (N2) complex I (NADH:ubiquinone oxidoreductase), sequence (P24887 whole entry): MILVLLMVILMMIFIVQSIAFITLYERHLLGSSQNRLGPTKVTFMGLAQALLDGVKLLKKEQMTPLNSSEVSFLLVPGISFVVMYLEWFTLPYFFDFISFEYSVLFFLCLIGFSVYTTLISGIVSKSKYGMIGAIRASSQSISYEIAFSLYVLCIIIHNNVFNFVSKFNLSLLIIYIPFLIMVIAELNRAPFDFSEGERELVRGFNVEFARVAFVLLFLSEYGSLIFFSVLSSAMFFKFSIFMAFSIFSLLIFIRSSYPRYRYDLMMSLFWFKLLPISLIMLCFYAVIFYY
# C. elegans (N2) complex I (NADH:ubiquinone oxidoreductase), sequence (Q93873 31-482): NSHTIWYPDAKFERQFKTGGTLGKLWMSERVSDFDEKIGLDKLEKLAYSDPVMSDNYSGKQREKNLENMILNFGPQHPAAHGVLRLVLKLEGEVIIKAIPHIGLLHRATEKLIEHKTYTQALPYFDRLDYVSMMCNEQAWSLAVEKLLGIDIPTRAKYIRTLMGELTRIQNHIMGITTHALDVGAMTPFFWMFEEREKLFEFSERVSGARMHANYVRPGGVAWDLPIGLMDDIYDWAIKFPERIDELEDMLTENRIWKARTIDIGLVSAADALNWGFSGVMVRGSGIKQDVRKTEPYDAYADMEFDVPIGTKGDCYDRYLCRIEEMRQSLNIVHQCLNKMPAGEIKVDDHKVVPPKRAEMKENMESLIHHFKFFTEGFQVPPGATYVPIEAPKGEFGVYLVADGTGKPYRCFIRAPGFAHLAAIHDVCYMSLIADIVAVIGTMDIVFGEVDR
structure (smiles),measurement,setting,value
"C=C(C)[C@H]1Cc2c(ccc3c2O[C@@H]2COc4cc(OC)c(OC)cc4[C@@H]2C3=O)O1 [Rotenone, reference compound]",activity at 100 µM,"100 µM compound, relative to solvent control, mean (SEM), read-out: % Activity Complex I",0%
same,activity at 100 µM,"100 μM inhibitor, in vitro activity relative to solvent control, N2 C. elegans mitochondria, single replicate, read-out: CI Activity",0%
same,activity at 100 µM,"100 μM of NPD compound, C. elegans mitochondria, individual biological replicates, read-out: Percent in vitro activity, Complex I (single replicate Rep1-Rep4)",0%
same,activity at 100 µM,"100 μM of NPD compound, C. elegans mitochondria, mean of four biological replicates, read-out: Percent in vitro activity, Complex I (Mean)",0%
same,"Absorbance DCIP [600nm], complex I","30 s, single replicate",1.265 and 1.244 and 1.248
same,"Absorbance DCIP [600nm], complex I","60 s, single replicate",1.261 and 1.240 and 1.243
same,"Absorbance DCIP [600nm], complex I","90 s, single replicate",1.257 and 1.236 and 1.240
same,"Absorbance DCIP [600nm], complex I","120 s, single replicate",1.252 and 1.232 and 1.237
same,"Absorbance DCIP [600nm], complex I","150 s, single replicate",1.248 and 1.229 and 1.234
same,"Absorbance DCIP [600nm], complex I","180 s, single replicate",1.244 and 1.226 and 1.230
same,"Absorbance DCIP [600nm], complex I","210 s, single replicate",1.240 and 1.223 and 1.227
same,"Absorbance DCIP [600nm], complex I","240 s, single replicate",1.237 and 1.219 and 1.223
same,"Absorbance DCIP [600nm], complex I","270 s, single replicate",1.233 and 1.216 and 1.220 and 1.199
same,"Absorbance DCIP [600nm], complex I","300 s, single replicate",1.229 and 1.212 and 1.216 and 1.196
same,"Absorbance DCIP [600nm], complex I","330 s, single replicate",1.225 and 1.209 and 1.213 and 1.193
same,"Absorbance DCIP [600nm], complex I","360 s, single replicate",1.221 and 1.206 and 1.210 and 1.190
same,"Absorbance DCIP [600nm], complex I","390 s, single replicate",1.218 and 1.203 and 1.206 and 1.187
same,"Absorbance DCIP [600nm], complex I","420 s, single replicate",1.214 and 1.199 and 1.203 and 1.185
same,"Absorbance DCIP [600nm], complex I","450 s, single replicate",1.210 and 1.196 and 1.200 and 1.182
same,"Absorbance DCIP [600nm], complex I","480 s, single replicate",1.206 and 1.193 and 1.197 and 1.179
same,"Absorbance DCIP [600nm], complex I","510 s, single replicate",1.203 and 1.190 and 1.193 and 1.176
same,"Absorbance DCIP [600nm], complex I","540 s, single replicate",1.199 and 1.187 and 1.190 and 1.174
same,"Absorbance DCIP [600nm], complex I","570 s, single replicate",1.195 and 1.183 and 1.187
same,"Absorbance DCIP [600nm], complex I","600 s, single replicate",1.192 and 1.180 and 1.184
same,"Absorbance DCIP [600nm], complex I","630 s, single replicate",1.188 and 1.177 and 1.181
same,"Absorbance DCIP [600nm], complex I","660 s, single replicate",1.185 and 1.174 and 1.177
same,"Absorbance DCIP [600nm], complex I","690 s, single replicate",1.181 and 1.171 and 1.174
same,"Absorbance DCIP [600nm], complex I","720 s, single replicate",1.178 and 1.168 and 1.171
same,"Absorbance DCIP [600nm], complex I","750 s, single replicate",1.174 and 1.164 and 1.168
same,"Absorbance DCIP [600nm], complex I","780 s, single replicate",1.171 and 1.161 and 1.165
same,"Absorbance DCIP [600nm], complex I","810 s, single replicate",1.167 and 1.158 and 1.162
same,"Absorbance DCIP [600nm], complex I","840 s, single replicate",1.164 and 1.155 and 1.159
same,"Absorbance DCIP [600nm], complex I","870 s, single replicate",1.161 and 1.152 and 1.156
same,"Absorbance DCIP [600nm], complex I","900 s, single replicate",1.157 and 1.149 and 1.153
same,remaining activity at 0.0001 µM,[1],95.7%
same,remaining activity at 0.0001 µM,[2],90.6%
same,remaining activity at 0.0005 µM,[1],104%
same,remaining activity at 0.0005 µM,[2],108%
same,remaining activity at 0.001 µM,"dose 0.001 µM, wild-type C. elegans, mean of replicates, read-out: in vitro complex I activity relative to solvent control, Mean",104%
same,remaining activity at 0.0025 µM,[1],110%
same,remaining activity at 0.0025 µM,[2],108%
same,remaining activity at 0.005 µM,[1],101%
same,remaining activity at 0.005 µM,[2],97%
same,remaining activity at 0.013 µM,[1],90.6%
same,remaining activity at 0.013 µM,[2],89.2%
same,remaining activity at 0.025 µM,"dose 0.025 µM, wild-type C. elegans, mean of replicates, read-out: in vitro complex I activity relative to solvent control, Mean",89.6%
same,remaining activity at 0.063 µM,[1],27%
same,remaining activity at 0.063 µM,[2],21.5%
same,remaining activity at 0.125 µM,[1],26.8%
same,remaining activity at 0.125 µM,[2],17.8%
same,remaining activity at 0.313 µM,"dose 0.313 µM, wild-type C. elegans, mean of replicates, read-out: in vitro complex I activity relative to solvent control, Mean",0.682%
same,remaining activity at 0.625 µM,"dose 0.625 µM, wild-type C. elegans, mean of replicates, read-out: in vitro complex I activity relative to solvent control, Mean",0.888%
same,remaining activity at 1.5 µM,"dose 1.5 µM, wild-type C. elegans, mean of replicates, read-out: in vitro complex I activity relative to solvent control, Mean",7.71%
same,remaining activity at 3 µM,"dose 3 µM, wild-type C. elegans, mean of replicates, read-out: in vitro complex I activity relative to solvent control, Mean",5.32%
same,remaining activity at 15 µM,"dose 15 µM, wild-type C. elegans, mean of replicates, read-out: in vitro complex I activity relative to solvent control, Mean",5.62%
same,remaining activity at 37.5 µM,"dose 37.5 µM, wild-type C. elegans, mean of replicates, read-out: in vitro complex I activity relative to solvent control, Mean",6.72%
same,remaining activity at 75 µM,"dose 75 µM, wild-type C. elegans, mean of replicates, read-out: in vitro complex I activity relative to solvent control, Mean",3.64%
same,IC50,"wild-type (N2) mitochondria, read-out: C. elegans Complex I IC50",45 nM

# From article PMC11079024, “Identification of a family of species-selective complex I inhibitors as potential anthelmintics” (Nature Communications, 2024)
